Consider 3 molecules from paper PMC3469757 (Journal of medicinal chemistry, 2012).

One data set concerns male NMRI mice. Kind of data set: Capsaicin induced hypothermia in mice. In kind it is in vivo, mouse.
The target in data set [1] is T1, human TRPV1 (Homo sapiens, UniProt Q8NER1). Kind of data set: pH assay. In kind it is cell-based.
In data set [2] the target is T1, human TRPV1. The data set is described as follows: Capsaicin assay. It counts as cell-based.
Data set [3] deals with CCI-induced cold allodynia in rats. The data set is described as follows: Rat Bennett model of neuropathic pain. In kind it is in vivo. The settings on record: po.
The subject of a further data set is TRPV1 knockout mice. The data set is described as follows: Body temperature in TRPV1 knock-out mice. In kind it is in vivo, mouse. The conditions noted are these: 1 mg/kg oral.
For data set [4], the system named is panel of 135 other receptors and enzymes (CEREP). Kind of data set: Selectivity panel. The conditions noted are these: 10 µM.
Data set [5] addresses T1, human TRPV1. The data set is described as follows: [3H]resiniferatoxin binding. The settings on record: data not shown.
The next data set has as its system C57BL/6J wild type mice. Kind of data set: Body temperature in wild type mice. It counts as in vivo, mouse. The conditions noted are these: 1 mg/kg oral, 45 min and 60 min post administration.

T1 sequence (Q8NER1 whole entry): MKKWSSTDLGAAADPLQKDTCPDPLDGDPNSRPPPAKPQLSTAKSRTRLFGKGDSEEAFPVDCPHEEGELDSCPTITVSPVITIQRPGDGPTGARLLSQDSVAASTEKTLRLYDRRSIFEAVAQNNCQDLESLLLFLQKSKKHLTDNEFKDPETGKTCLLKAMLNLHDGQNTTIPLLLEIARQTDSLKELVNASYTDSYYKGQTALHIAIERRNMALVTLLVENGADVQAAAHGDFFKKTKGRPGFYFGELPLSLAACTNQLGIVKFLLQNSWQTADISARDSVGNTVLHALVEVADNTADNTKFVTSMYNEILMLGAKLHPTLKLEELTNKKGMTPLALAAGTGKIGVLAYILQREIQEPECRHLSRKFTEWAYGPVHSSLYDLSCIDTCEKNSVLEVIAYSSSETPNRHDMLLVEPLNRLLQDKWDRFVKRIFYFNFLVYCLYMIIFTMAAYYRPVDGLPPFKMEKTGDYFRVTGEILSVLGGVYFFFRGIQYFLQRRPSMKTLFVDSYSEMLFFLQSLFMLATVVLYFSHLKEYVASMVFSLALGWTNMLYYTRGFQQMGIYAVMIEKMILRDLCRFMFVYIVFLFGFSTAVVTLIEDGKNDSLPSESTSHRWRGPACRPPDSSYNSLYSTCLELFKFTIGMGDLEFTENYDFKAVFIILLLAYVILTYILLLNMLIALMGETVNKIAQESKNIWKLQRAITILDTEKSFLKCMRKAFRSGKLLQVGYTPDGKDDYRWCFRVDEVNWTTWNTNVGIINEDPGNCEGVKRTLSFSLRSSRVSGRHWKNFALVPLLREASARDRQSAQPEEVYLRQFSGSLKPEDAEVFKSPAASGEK

Regarding `COc1cc(CNC(=O)CCCC/C=C/C(C)C)ccc1O` [capsaicin, reference compound], the “body temperature after capsaicin injection” value in the data set on male NMRI mice (3 mg/kg intraperitoneal, 15 min post injection, from 37.1 ± 0.1 °C) is 34.0 ± 0.1 °C.
For the molecule `CC(C(=O)NCc1ccc(C(F)(F)F)nc1N(C)c1ccccc1)c1ccc(NS(C)(=O)=O)c(F)c1` (stereo not shown) [Compound 32, 2-(3-Fluoro-4-(methylsulfonamido)phenyl)-N-((2-(methyl(phenyl)amino)-6-(trifluoromethyl)pyridin-3-yl)methyl)propanamide], the “fold increase in potency for pH compared to phenylamino analogue 17” value on human TRPV1 [1] (versus compound 17) was determined as 25 fold. In addition, on human TRPV1 [2] (versus compound 17), the “fold increase in potency for CAP compared to phenylamino analogue 17” value is 75 fold.
In the case of `CC1CCN(c2nc(C(F)(F)F)ccc2CNC(=O)[C@@H](C)c2ccc(NS(C)(=O)=O)c(F)c2)CC1` [Compound 49S, (S)-2-(3-Fluoro-4-(methylsulfonamido)phenyl)-N-((2-(4-methylpiperidin-1-yl)-6-(trifluoromethyl)pyridin-3-yl)methyl)propanamide], the “side effects like sedation or decreased locomotion” value in data set [3] is recorded as “not observed”. In addition, the “fold better than 2 for pH antagonism” value on human TRPV1 [1] (hTRPV1 in CHO cells, versus compound 2) stood at 200 fold. The “effect on capsaicin induced decrease of body temperature” value in the data set with male NMRI mice (0.3 mg/kg oral, 15 min before 3 mg/kg ip capsaicin) is listed as “completely inhibited”. For the same molecule, in the data set with TRPV1 knockout mice, the hyperthermic response result was “completely absent”. In addition, in data set [4], the “number of targets not negative in selectivity panel” value is given as 7 and the “number of targets with greater than 50% inhibition” value is on record as 3. In addition, on human TRPV1 [5], the “inhibition of [3H]resiniferatoxin binding to human TRPV1” value was “inhibited”. In addition, the body temperature increase entry in the data set with C57BL/6J wild type mice is “about 1.3 ± 0.1 °C”. At human TRPV1 [2] (capsaicin, pH, heat (45°C) and NADA, versus compound 2), the “fold more potent than 2 over all four TRPV1 activators” value was 140–660 fold. Also, the “fold more potent than lead 3 for capsaicin antagonism” value on human TRPV1 [2] (hTRPV1 in CHO cells, versus compound 3) was ~20 fold.
